In this assay the target is T1, cystic fibrosis transmembrane conductance regulator (CFTR), wt (Homo sapiens, UniProt P13569).
T1 construct: wt-CFTR stably expressed in BHK cells
As to the kind of experiment: automated whole-cell patch clamp, acute potentiation of current activated by […] Fsk on addition of […] compound. The class given is cell-based. A general note: Patch clamp records ionic current or voltage across a cell membrane.

We go through 1 compound from paper PMC5383655, “Development of Automated Patch Clamp Technique to Investigate CFTR Chloride Channel Function” (Frontiers in Pharmacology, 2017).

T1 sequence (P13569 whole entry): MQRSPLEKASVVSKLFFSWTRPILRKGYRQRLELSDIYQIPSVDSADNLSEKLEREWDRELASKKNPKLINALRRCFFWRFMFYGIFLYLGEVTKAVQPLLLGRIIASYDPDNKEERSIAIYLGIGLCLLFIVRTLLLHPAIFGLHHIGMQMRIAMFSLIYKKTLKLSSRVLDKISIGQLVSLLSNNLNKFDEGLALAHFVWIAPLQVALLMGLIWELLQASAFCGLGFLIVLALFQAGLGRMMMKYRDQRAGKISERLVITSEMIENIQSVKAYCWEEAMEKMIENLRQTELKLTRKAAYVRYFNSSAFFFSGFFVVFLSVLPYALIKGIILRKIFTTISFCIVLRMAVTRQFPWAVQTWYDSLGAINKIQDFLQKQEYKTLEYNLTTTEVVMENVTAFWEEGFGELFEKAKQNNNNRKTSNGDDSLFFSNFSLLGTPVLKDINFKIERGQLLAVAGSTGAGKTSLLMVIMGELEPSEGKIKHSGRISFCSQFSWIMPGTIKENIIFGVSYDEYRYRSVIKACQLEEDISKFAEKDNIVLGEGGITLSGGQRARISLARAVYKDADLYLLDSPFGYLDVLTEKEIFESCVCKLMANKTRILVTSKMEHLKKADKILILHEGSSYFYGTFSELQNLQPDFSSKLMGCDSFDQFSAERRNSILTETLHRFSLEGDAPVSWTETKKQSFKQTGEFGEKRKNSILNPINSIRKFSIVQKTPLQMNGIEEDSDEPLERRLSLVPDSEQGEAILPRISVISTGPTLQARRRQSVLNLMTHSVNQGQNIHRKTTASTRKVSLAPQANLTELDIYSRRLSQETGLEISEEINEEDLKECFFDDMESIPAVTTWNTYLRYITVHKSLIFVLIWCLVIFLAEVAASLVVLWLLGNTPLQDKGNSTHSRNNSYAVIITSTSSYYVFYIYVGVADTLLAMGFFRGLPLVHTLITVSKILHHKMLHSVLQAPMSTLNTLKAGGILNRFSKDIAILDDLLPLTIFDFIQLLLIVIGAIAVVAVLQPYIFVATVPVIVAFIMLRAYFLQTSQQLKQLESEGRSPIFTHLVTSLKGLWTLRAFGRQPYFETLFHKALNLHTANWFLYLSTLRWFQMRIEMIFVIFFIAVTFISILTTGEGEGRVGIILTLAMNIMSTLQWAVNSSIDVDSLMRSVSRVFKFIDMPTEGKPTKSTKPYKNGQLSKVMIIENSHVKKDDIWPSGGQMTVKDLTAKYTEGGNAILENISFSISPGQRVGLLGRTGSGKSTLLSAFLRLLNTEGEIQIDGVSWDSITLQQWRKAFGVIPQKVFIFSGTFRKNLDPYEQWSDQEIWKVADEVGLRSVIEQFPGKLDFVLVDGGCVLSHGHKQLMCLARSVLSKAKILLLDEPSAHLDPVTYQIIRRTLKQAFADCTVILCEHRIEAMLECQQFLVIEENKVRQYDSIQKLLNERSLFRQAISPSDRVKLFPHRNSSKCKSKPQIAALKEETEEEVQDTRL

For `CC(C)(C)c1cc(C(C)(C)C)c(NC(=O)c2c[nH]c3ccccc3c2=O)cc1O` [VX770], the “automated whole-cell patch clamp, acute potentiation of current activated by 1 μ” value is reported as “clearly demonstrate potentiation of the Fsk-activated current by the potentiator VX770”.
